Series [1] has as its system Blumeria graminis f. sp. tritici (Erysiphe graminis f. sp. tritici). As to the kind of experiment: Blumeria graminis f. sp. tritici / wheat / leaf disc preventative (powdery mildew on wheat). Format: in vivo. The conditions noted are these: foliar, wheat leaf segments cv. Kanzler, inoculated 1 day after application, assessed 6-8 days after application, read-out: control of Blumeria graminis f. sp. tritici (percent disease control compared to untreated). In a few lines: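 Wheat cv. Kanzler leaf segments on agar were sprayed with formulated compound in water, then inoculated with powdery mildew 1 day after application. Incubation was at 20° C, 60% rh, 24 h dark then 12 h light/12 h dark. Percent disease control versus untreated was scored 6-8 days after application.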

The test system of a further series is Phakopsora pachyrhizi. As to the kind of experiment: Phakopsora pachyrhizi / soybean / preventative (soybean rust). Type of series: in vivo. Particulars: foliar, soybean leaf disks, inoculated one day after application, assessed 12-14 days after application, read-out: control of Phakopsora pachyrhizi (percent disease control compared to untreated). Here is the method: Phakopsora pachyrhizi/Soybean/Preventative (Soybean Rust) Soybean leaf disks are placed on water agar in multiwell plates (24-well format) and sprayed with the formulated test compound diluted in water. One day after application leaf discs are inoculated by spraying a spore suspension on the lower leaf surface. After an incubation period in a climate cabinet of 24-36 hours in darkness at 20° C. and 75% rh leaf disc are kept at 20° C. with 12 h light/day and 75% rh. The activity of a compound is assessed as percent disease control compared to untreated when an appropriate level of disease damage appears in untreated check leaf disks (12-14 days after application).

Series [2] deals with Puccinia recondita f. sp. tritici. As to the kind of experiment: Puccinia recondita f. sp. tritici / wheat / leaf disc curative (brown rust). Type of series: in vivo. Particulars: foliar, wheat leaf segments cv. Kanzler, compound applied 1 day after inoculation, assessed 6-8 days after application, read-out: control of Puccinia recondita f. sp. tritici (percent disease control compared to untreated). The method, boiled down:
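Curative test: leaf segments of wheat cv. Kanzler on agar were inoculated with spores and held dark at 19 °C, 75% rh; formulated compound in water was applied 1 day after inoculation. Segments were then kept at 19 °C, 75% rh under 12 h light/12 h dark, and percent disease control versus untreated was scored 6-8 days after application.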

Series [3] has the same test system. The series can be described thus: Puccinia recondita f. sp. tritici / wheat / leaf disc preventative (brown rust). Format: in vivo. Particulars: foliar, wheat leaf segments cv. Kanzler, inoculated 1 day after application, assessed 7-9 days after application, read-out: control of Puccinia recondita f. sp. tritici (percent disease control compared to untreated). In a few lines:
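Leaf segments of wheat cv. Kanzler on agar were sprayed with diluted formulated compound and inoculated with spores 1 day later. Kept at 19° C, 75% rh, 12 h light/12 h dark. Percent disease control versus untreated assessed 7-9 days after application.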

Broadly, the melting point is the temperature of the solid-liquid transition. Compound `CCN(C)C=Nc1cc(OC)c(C(O)(C/C(=N/OC)c2ccccc2)C(F)(F)F)cc1C` (stereo not drawn) [E.059, N-ethyl-N′-[4-[(3Z)-1-hydroxy-3-methoxyimino-3-phenyl-1-(trifluoromethyl)propyl]-5-methoxy-2-methyl-phenyl]-N-methyl-formamidine] yielded a melting point of 105 to 107 °C. Besides, in series [1], the pest or weed control at 200 ppm is ≥ 80%. Also, the pest or weed control at 200 ppm with Phakopsora pachyrhizi is ≥ 80%. In addition, the pest or weed control at 200 ppm in series [2] was ≥ 80%. Further, the pest or weed control at 200 ppm in series [3] was ≥ 80%.
`CCN(C)/C=N/c1cc(OC)c(C(O)(C(F)(F)F)C(C)(C)C#N)cc1C` (stereo not drawn) [E.060, N′-[4-[2-cyano-1-hydroxy-2-methyl-1-(trifluoromethyl)propyl]-5-methoxy-2-methyl-phenyl]-N-ethyl-N-methyl-formamidine] registered a melting point of 90 to 93 °C. For the same compound, the pest or weed control at 200 ppm in series [1] is ≥ 80%. The pest or weed control at 200 ppm with Phakopsora pachyrhizi was ≥ 80%. Moreover, in series [2], the pest or weed control at 200 ppm was ≥ 80%. The pest or weed control at 200 ppm in series [3] is ≥ 80%.
`CCN(C)/C=N/c1cc(OC)c(C(O)(CC#N)C(F)(F)F)cc1C` (stereo not drawn) [E.061, N′-[4-[1-(cyanomethyl)-2,2,2-trifluoro-1-hydroxy-ethyl]-5-methoxy-2-methyl-phenyl]-N-ethyl-N-methyl-formamidine] displayed a melting point of 86 to 88 °C. Further, the pest or weed control at 200 ppm in series [1] is ≥ 80%. For the same compound, the pest or weed control at 200 ppm in series [2] is ≥ 80%. Further, in series [3], the pest or weed control at 200 ppm was ≥ 80%.
The compound `CCN(C)/C=N/c1cc(OC)c(C(O)(CS(=O)(=O)Cc2ccccc2)C(F)(F)F)cc1C` (stereo not drawn) [E.064, N′-[4-[1-(benzylsulfonylmethyl)-2,2,2-trifluoro-1-hydroxy-ethyl]-5-methoxy-2-methyl-phenyl]-N-ethyl-N-methyl-formamidine] gave a melting point of 56 to 58 °C. Also, in series [1], the pest or weed control at 200 ppm is ≥ 80%. The pest or weed control at 200 ppm in series [2] was ≥ 80%. Moreover, the pest or weed control at 200 ppm in series [3] was ≥ 80%.
`CCN(C)/C=N/c1cc(OC)c(C(O)(CS(=O)(=O)c2ccccc2)C(F)(F)F)cc1C` (stereo not drawn) [E.065, N′-[4-[1-(benzenesulfonylmethyl)-2,2,2-trifluoro-1-hydroxy-ethyl]-5-methoxy-2-methyl-phenyl]-N-ethyl-N-methyl-formamidine]: the melting point fell in the range of 103 to 105 °C. Moreover, the pest or weed control at 200 ppm in series [1] was ≥ 80%. In series [2], the pest or weed control at 200 ppm is ≥ 80%. Besides, the pest or weed control at 200 ppm in series [3] is ≥ 80%.
`CCN(C)/C=N/c1cc(OC)c(C(O)(CSc2ccc(F)cc2)C(F)(F)F)cc1C` (stereo not drawn) [E.068, N-ethyl-N′-[5-methoxy-2-methyl-4-[2,2,2-trifluoro-1-[(4-fluorophenyl)sulfanylmethyl]-1-hydroxy-ethyl]phenyl]-N-methyl-formamidine]: the pest or weed control at 200 ppm (in series [1]; with Phakopsora pachyrhizi; in series [2]; in series [3]) was ≥ 80% in each case.
For `CCN(C)/C=N/c1cc(OC)c(C(O)(CSCc2ccccc2)C(F)(F)F)cc1C` (stereo not drawn) [E.069, N′-[4-[1-(benzylsulfanylmethyl)-2,2,2-trifluoro-1-hydroxy-ethyl]-5-methoxy-2-methyl-phenyl]-N-ethyl-N-methyl-formamidine], the pest or weed control at 200 ppm (in series [1]; in the series on Phakopsora pachyrhizi; in series [2]; in series [3]) was ≥ 80% in each case.
Turning to `CCSCC(O)(c1cc(C)c(/N=C/N(C)CC)cc1OC)C(F)(F)F` (stereo not drawn) [E.073, N-ethyl-N′-[4-[1-(ethylsulfanylmethyl)-2,2,2-trifluoro-1-hydroxy-ethyl]-5-methoxy-2-methyl-phenyl]-N-methyl-formamidine], the melting point was in the range of 81 to 83 °C. The pest or weed control at 200 ppm in series [1] is ≥ 80%. Besides, the pest or weed control at 200 ppm in series [3] was ≥ 80%.
The compound `CCN(C)/C=N/c1cc(OC)c(C(O)(C2=COCCC2)C(F)(F)F)cc1C` (stereo not drawn) [E.074, N′-[4-[1-(3,4-dihydro-2H-pyran-5-yl)-2,2,2-trifluoro-1-hydroxy-ethyl]-5-methoxy-2-methyl-phenyl]-N-ethyl-N-methyl-formamidine] had a melting point of 115 to 116.6 °C. In addition, the pest or weed control at 200 ppm in series [1] was ≥ 80%. In addition, in series [2], the pest or weed control at 200 ppm was ≥ 80%. For the same compound, the pest or weed control at 200 ppm in series [3] was ≥ 80%.
Take `CCN(C)/C=N/c1cc(OC)c(C(O)(C2CCC(OC)CC2)C(F)(F)F)cc1C` (stereo not drawn) [E.075, N-ethyl-N′-[5-methoxy-2-methyl-4-[2,2,2-trifluoro-1-hydroxy-1-(4-methoxycyclohexyl)ethyl]phenyl]-N-methyl-formamidine]: the pest or weed control at 200 ppm (in series [1]; in the series with Phakopsora pachyrhizi; in series [2]; in series [3]) was ≥ 80% throughout.
With `CCN(C)/C=N/c1cc(OC)c(C(O)(C2CCC(OC(C)C)CC2)C(F)(F)F)cc1C` (stereo not drawn) [E.078, N-ethyl-N′-[5-methoxy-2-methyl-4-[2,2,2-trifluoro-1-hydroxy-1-(4-isopropoxycyclohexyl)ethyl]phenyl]-N-methyl-formamidine], the pest or weed control at 200 ppm (in series [1]; in the series on Phakopsora pachyrhizi; in series [2]; in series [3]) was ≥ 80% each time.
Consider `CCCOC1CCC(C(O)(c2cc(C)c(/N=C/N(C)CC)cc2OC)C(F)(F)F)CC1` (stereo not drawn) [E.079, N-ethyl-N′-[5-methoxy-2-methyl-4-[2,2,2-trifluoro-1-hydroxy-1-(4-propoxycyclohexyl)ethyl]phenyl]-N-methyl-formamidine], for which the pest or weed control at 200 ppm (in series [1]; in the series on Phakopsora pachyrhizi; in series [2]; in series [3]) was ≥ 80% in each case.
With `CCOC1CCC(C(O)(c2cc(C)c(/N=C/N(C)CC)cc2OC)C(F)(F)F)CC1` (stereo not drawn) [E.080, N′-[4-[1-(4-ethoxycyclohexyl)-2,2,2-trifluoro-1-hydroxy-ethyl]-5-methoxy-2-methyl-phenyl]-N-ethyl-N-methyl-formamidine], the pest or weed control at 200 ppm (in series [1]; in the series on Phakopsora pachyrhizi; in series [2]; in series [3]) was ≥ 80% in each case.
Consider `CCN(C)/C=N/c1cc(OC)c(C(O)(C/C(C)=N/OCc2ccccc2)C(F)(F)F)cc1C` (stereo not drawn) [E.081], for which the pest or weed control at 200 ppm (in series [1]; with Phakopsora pachyrhizi; in series [2]; in series [3]) was ≥ 80% each time.

Values taken from patent US10925283B2, “Microbiocidal phenylamidine derivatives” (SYNGENTA PARTICIPATIONS AG, priority 2016, dated 2021).
